Measurements: patent US11999732B2, “P2X3 receptor antagonists” (RECORDATI INDUSTRIA CHIMICA E FARMACEUTICA SPA, priority 2018, dated 2024)
Where two headings read alike, the source gives them in different places.

Biological target: T1, human P2X3 receptor (Homo sapiens, UniProt P56373)
T1 construct: expressed in transfected cells; host or cells: CHO-K1
T1 sequence (P56373 1-397): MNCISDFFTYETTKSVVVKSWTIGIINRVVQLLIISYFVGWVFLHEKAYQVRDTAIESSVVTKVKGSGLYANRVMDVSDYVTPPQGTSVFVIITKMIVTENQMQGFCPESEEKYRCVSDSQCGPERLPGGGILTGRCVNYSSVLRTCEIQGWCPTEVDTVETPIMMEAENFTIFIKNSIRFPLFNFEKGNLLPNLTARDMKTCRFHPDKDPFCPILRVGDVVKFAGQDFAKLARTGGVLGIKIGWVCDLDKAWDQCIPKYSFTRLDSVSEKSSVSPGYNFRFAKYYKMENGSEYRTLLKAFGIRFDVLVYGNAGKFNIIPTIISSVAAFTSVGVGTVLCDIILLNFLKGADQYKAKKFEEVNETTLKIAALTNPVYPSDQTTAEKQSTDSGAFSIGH
Assay: Calcium luminescence (photoprotein) assay in CHO-K1 cells co-expressing human P2X3 receptor, α,β-Met-ATP stimulation, FLEXSTATION readout
Assay type: cell-based
Method in brief: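 CHO-K1 cells co-expressing human P2X3 and a Ca2+-sensitive photoprotein, loaded with coelenterazine in Tyrode's buffer (pH 7.4) for 4 h at 37 °C. Compounds injected 4 min before α,β-Met-ATP stimulation; luminescence recorded, IC50 and pseudo-Hill slope from nonlinear regression of inhibition curves.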

[1] = Table 7, human P2X3 receptor antagonist activity, CHO-K1 cells, α,β-Met-ATP, read-out: h-P2X3 IC50
[2] = running text b1263, read-out: inhibition (human P2X3 receptor)
[3] = Table 8, human P2X3 receptor antagonist activity, CHO-K1 cells, α,β-Met-ATP, read-out: h-P2X3 IC50

| SMILES | IC50 [1] | also measured |
| --- | --- | --- |
| COc1cc(Cn2c(=O)n3c(C)c(C(C)C)nc3c3ncc(N4CCN(C(C)=O)CC4)cc32)cc(OC)c1 [Example 84, 8-(4-acetylpiperazin-1-yl)-6-(3,5-dimethoxybenzyl)-3-methyl-2-(propan-2-yl)imidazo[1,2-c]pyrido[2,3-e]pyrimidin-5(6H)-one] | 259 nM |  |
| COc1cc(Cn2c(=O)n3c(C)c(C)nc3c3ncc(N4CCC(OC)CC4)cc32)cc(OC)c1 [Example 85, 6-(3,5-dimethoxybenzyl)-8-(4-methoxypiperidin-1-yl)-2,3-dimethylimidazo[1,2-c]pyrido[2,3-e]pyrimidin-5(6H)-one] | 1300 nM |  |
| COc1cc(Cn2c(=O)n3c(C)c(C(C)C)nc3c3ncc(N4CCC(OC)CC4)cc32)cc(OC)c1 [Example 87, 6-(3,5-dimethoxybenzyl)-8-(4-methoxypiperidin-1-yl)-3-methyl-2-(propan-2-yl)imidazo[1,2-c]pyrido[2,3-e]pyrimidin-5(6H)-one] | 444 nM |  |
| COCC1CN(c2cnc3c(c2)n(Cc2cc(OC)cc(OC)c2)c(=O)n2c(C)c(C(C)C)nc32)C1 [Example 88, 6-(3,5-dimethoxybenzyl)-8-[3-(methoxymethyl)azetidin-1-y1]-3-methyl-2-(propan-2-yl)imidazo[1,2-c]pyrido[2,3-e]pyrimidin-5(6H)-one] | 53.6 nM |  |
| COc1ccc(Cn2c(=O)n3c(C)c(C(C)C)nc3c3ncc(N4CCOCC4)cc32)cc1 [Example 89, 6-(4-methoxybenzyl)-3-methyl-8-(morpholin-4-yl)-2-(propan-2-yl)imidazo[1,2-c]pyrido[2,3-e]pyrimidin-5(6H)-one] | 575 nM |  |
| Cc1c(C(C)C)nc2c3ncc(N4CCOCC4)cc3n(Cc3ccc(Cl)cc3)c(=O)n12 [Example 90] | 332 nM |  |
| Cc1c(C(C)C)nc2c3ncc(N4CC5(COC5)C4)cc3n(Cc3ccc(Cl)cc3)c(=O)n12 [Example 91, 6-(4-chlorobenzyl)-3-methyl-8-(2-oxa-6-azaspiro[3.3]heptan-6-yl)-2-(propan-2-yl)imidazo[1,2-c]pyrido[2,3-e]pyrimidin-5(6H)-one] | 507 nM |  |
| COCC1CN(c2cnc3c(c2)n(Cc2ccc(OC)cc2)c(=O)n2c(C)c(C(C)C)nc32)C1 [Example 92, 6-(4-methoxybenzyl)-8-[3-(methoxymethyl)azetidin-1-y1]-3-methyl-2-(propan-2-yl)imidazo[1,2-c]pyrido[2,3-e]pyrimidin-5(6H)-one] | 802 nM |  |
| COc1ccc(Cn2c(=O)n3c(C)c(C(C)C)nc3c3ncc(N4CC5(COC5)C4)cc32)cc1 [Example 93, 6-(4-methoxybenzyl)-3-methyl-8-(2-oxa-6-azaspiro[3.3]heptan-6-yl)-2-(propan-2-yl)imidazo[1,2-c]pyrido[2,3-e]pyrimidin-5(6H)-one] | 1010 nM |  |
| Cc1c(C(C)C)nc2c3ncc(C(=O)N4CCC(O)CC4)cc3n(Cc3ccc(Cl)cc3)c(=O)n12 [Example 94, 6-(4-chlorobenzyl)-8-[(4-hydroxypiperidin-1-yl)carbonyl]-3-methyl-2-(propan-2-yl)imidazo[1,2-c]pyrido[2,3-e]pyrimidin-5(6H)-one] | 8260 nM |  |
| Cc1c(C(C)C)nc2c3ncc(C(=O)NCCO)cc3n(Cc3ccc(Cl)cc3)c(=O)n12 [Example 95, 6-(4-chlorobenzyl)-n-(2-hydroxyethyl)-3-methyl-5-oxo-2-(propan-2-y1)-5,6-dihydroimidazo[1,2-c]pyrido[2,3-e]pyrimidine-8-carboxamide] | 2980 nM |  |
| COc1ccc(Cn2c(=O)n3c(C(C)(C)C)nnc3c3ncc(N4CCOCC4)cc32)cc1 [Example 96, 3-tert-butyl-6-(4-methoxybenzyl)-8-(morpholin-4-yl)pyrido[2,3-e][1,2,4]triazolo[4,3-c]pyrimidin-5(6H)-one] |  | IC50 [2]: 20.7 nM |
| COc1ccc(Cn2c(=O)n3c(C(C)C)nnc3c3ncc(N4CCOCC4)cc32)cc1 [Example 97, 6-(4-methoxybenzyl)-8-(morpholin-4-yl)-3-(propan-2-yl)pyrido[2,3-e][1,2,4]triazolo[4,3-c]pyrimidin-5(6H)-one] | 394 nM |  |
| COc1ccc(Cn2c(=O)n3c(COC4CCOCC4)nnc3c3ncc(N4CCOCC4)cc32)cc1 [Example 98, 6-(4-methoxybenzyl)-8-(morpholin-4-yl)-3-[(tetrahydro-2H-pyran-4-yloxy)methyl]pyrido[2,3-e][1,2,4]triazolo[4,3-c]pyrimidin-5(6H)-one] | 897 nM |  |
| CC(C)c1nnc2c3ncc(N4CCOCC4)cc3n(Cc3ccc(Cl)cc3)c(=O)n12 [Example 99, 6-(4-chlorobenzyl)-8-(morpholin-4-yl)-3-(propan-2-yl)pyrido[2,3-e][1,2,4]triazolo[4,3-c]pyrimidin-5(6H)-one] | 121 nM |  |
| O=c1n(Cc2ccc(Cl)cc2)c2cc(N3CCOCC3)cnc2c2nnc(Cc3cccnc3)n12 [Example 100, 6-(4-chlorobenzyl)-8-(morpholin-4-y1)-3-(pyridin-3-ylmethyl)pyrido[2,3-e][1,2,4]triazolo[4,3-c]pyrimidin-5(6H)-one] | 153 nM |  |
| COc1cc(Cn2c(=O)n3c(C)nnc3c3ncc(N4CCOCC4)cc32)cc(OC)c1 [Example 101, 6-(3,5-dimethoxybenzyl)-3-methyl-8-(morpholin-4-yl)pyrido[2,3-e][1,2,4]triazolo[4,3-c]pyrimidin-5(6H)-one] | 2440 nM |  |
| CC1(c2nnc3c4ncc(N5CCOCC5)cc4n(Cc4ccc(Cl)cc4)c(=O)n23)CC1 [Example 102, 6-(4-chlorobenzyl)-3-(1-methylcyclopropyl)-8-(morpholin-4-yl)pyrido[2,3-e][1,2,4]triazolo[4,3-c]pyrimidin-5(6H)-one] |  | IC50 [2]: 25.5 nM |
| CC(C)(C)c1nnc2c3ncc(N4CCOCC4)cc3c(Cc3ccc(Cl)cc3)nn12 [Example 111, 3-tert-butyl-6-(4-chlorobenzyl)-8-(morpholin-4-yl)pyrido[2,3-d][1,2,4]triazolo[4,3-b]pyridazine] |  | IC50 [3]: 102 nM |
| CC(C)(C)c1nnc2c3ncc(Br)cc3c(Cc3ccc(Cl)cc3)nn12 [Example 112, 8-bromo-3-tert-butyl-6-(4-chlorobenzyl)pyrido[2,3-d][1,2,4]triazolo[4,3-b]pyridazine] |  | IC50 [3]: 1440 nM |
| Cc1ccc(Cc2nn3c(C(C)C)nnc3c3ncc(N4CCOCC4)cc23)cc1 [Example 115, 6-(4-methylbenzyl)-8-(morpholin-4-yl)-3-(propan-2-yl)pyrido[2,3-d][1,2,4]triazolo[4,3-b]pyridazine] |  | IC50 [3]: 437 nM |
| COc1cc(Cc2nn3c(CC(C)C)nnc3c3ncc(N4CCOCC4)cc23)cc(OC)c1 [Example 116, 6-(3,5-dimethoxybenzyl)-3-(2-methylpropyl)-8-(morpholin-4-yl)pyrido[2,3-d][1,2,4]triazolo[4,3-b]pyridazine] |  | IC50 [3]: 469 nM |

Now from value to compound, other results behind:

| IC50 [1] | SMILES | also measured |
| --- | --- | --- |
| 811 nM | CC(C)NC(=O)Cc1nnc2c3ncc(N4CCOCC4)cc3n(Cc3ccc(Cl)cc3)c(=O)n12 [Example 103, 2-[6-(4-chlorobenzyl)-8-(morpholin-4-y1)-5-oxo-5,6-dihydropyrido[2,3-e][1,2,4]triazolo[4,3-c]pyrimidin-3-yl]-n-(propan-2-yl)acetamide] |  |
| 734 nM | COc1ccc(Cn2c(=O)n3c(CC(C)C)nnc3c3ncc(N4CCOCC4)cc32)cc1 [Example 104, 6-(4-methoxybenzyl)-3-(2-methylpropyl)-8-(morpholin-4-yl)pyrido[2,3-e][1,2,4]triazolo[4,3-c]pyrimidin-5(6H)-one] |  |
| 655 nM | O=c1n(Cc2ccc(Cl)cc2)c2cc(N3CCOCC3)cnc2c2nnc(Cc3cccnc3O)n12 [Example 105, 6-(4-chlorobenzyl)-3-[(2-hydroxypyridin-3-yl)methyl]-8-(morpholin-4-yl)pyrido[2,3-e][1,2,4]triazolo[4,3-c]pyrimidin-5(6H)-one] |  |
| 40.6 nM | Cc1ncccc1Cc1nnc2c3ncc(N4CCOCC4)cc3n(Cc3ccc(Cl)cc3)c(=O)n12 [Example 106, 6-(4-chlorobenzyl)-3-[(2-methylpyridin-3-yl)methyl]-8-(morpholin-4-yl)pyrido[2,3-e][1,2,4]triazolo[4,3-c]pyrimidin-5(6H)-one] |  |
| 1320 nM | CCn1nccc1-c1nnc2c3ncc(N4CCOCC4)cc3n(Cc3ccc(Cl)cc3)c(=O)n12 [Example 107, 6-(4-chlorobenzyl)-3-(1-ethyl-1h-pyrazol-5-yl)-8-(morpholin-4-yl)pyrido[2,3-e][1,2,4]triazolo[4,3-c]pyrimidin-5(6H)-one] |  |
| 175 nM | CC(C)Cc1nnc2c3ncc(N4CCOCC4)cc3n(Cc3ccc(Cl)cc3)c(=O)n12 [Example 108, 6-(4-chlorobenzyl)-3-(2-methylpropyl)-8-(morpholin-4-yl)pyrido[2,3-e][1,2,4]triazolo[4,3-c]pyrimidin-5(6H)-one] |  |
| 203 nM | CCn1ccc(-c2nnc3c4ncc(N5CCOCC5)cc4n(Cc4ccc(Cl)cc4)c(=O)n23)n1 [Example 109, 6-(4-chlorobenzyl)-3-(1-ethyl-1h-pyrazol-3-yl)-8-(morpholin-4-yl)pyrido[2,3-e][1,2,4]triazolo[4,3-c]pyrimidin-5(6H)-one] |  |
| 257 nM | Cc1noc(C)c1-c1nnc2c3ncc(N4CCOCC4)cc3n(Cc3ccc(Cl)cc3)c(=O)n12 [Example 110, 6-(4-chlorobenzyl)-3-(3,5-dimethyl-1,2-oxazol-4-yl)-8-(morpholin-4-yl)pyrido[2,3-e][1,2,4]triazolo[4,3-c]pyrimidin-5(6H)-one] |  |
